Assay results reported in patent US20130072459A1, “PHARMACEUTICAL COMPOSITION FOR THE PREVENTION OR THE TREATMENT OF NON-ALCOHOLIC FATTY LIVER DISEASE AND THE METHOD FOR PREVENTION OR TREATMENT OF NON-ALCOHOLIC FATTY LIVER DISEASE USING THE SAME” (priority 2010, published 2013).

Columns and labels:
[1] = tested on: activated hepatic stellate cells; assay: Expression of activity indicator proteins (TGFβ1, α-SMA) in activated hepatic stellate cells, Western blot; assay type: cell-based, rat (Wistar); conditions: for 1 ng/mL TGFβ1-induced protein expression inhibition rate, TGFβ1 / 1 ng/mL TGFβ1-induced protein expression inhibition rate, α-SMA: 100 μM compound, 7 days, N = 3, corrected by β-actin; for protein expression levels of TGFβ1 and α-SMA, result in words: hTGF-β1-activated rat hepatic stellate cells
Procedure: An inhibitory action of the compounds of the present invention on the activation of hepatic stellate cells was tested according to the following cell culture method. Male rats (Wistar rats), weighing 500 to 700 g, were anesthetized, followed by an abdominal incision, and cannulae were connected to hepatic portal veins, followed by sequential perfusion with a Hank's Balanced Salt Solution (HBSS) containing heparin and an HBSS containing type 1 collagenase. After the perfusion was complete, the liver was excised, ground with surgical scissors, and added to an HBSS containing type 1 collagenase, followed by shaking culture at 37° C. for 15 minutes. The completely ground liquid-state liver tissue was passed through gauze and centrifuged at 500 g for 10 minutes. The resulting mingled cell precipitate was washed with a phosphate buffer, followed by centrifugation at 100 g for 5 minutes, and the supernatant was collected. The supernatant was further centrifuged at 500 g for 10 minutes to obtain a precipitate to which a 9:1 (v/v) mixture of a Ficoll liquid (GE Healthcare) and a Percoll liquid (GE Healthcare) was added, followed by mixing. A phosphate buffer was gently placed on the mixed layer, followed by centrifugation at 1,400 g for 15 minutes. Then, the cell layer formed between the upper layer and the lower layer was recovered and washed once with a Dulbecco's Modified Eagle Medium (DMEM) containing 10(v/v) % fetal bovine serum. The resulting cells were added at a cell density of 3.1×10^5 cells/cm^2, the medium was exchanged with a fresh medium after 24 hours, and cultured for 7 days with exchange of the medium at intervals of 2 to 3 days. Then, the drugs were treated at specified concentrations in a medium containing 1 ng/ml of a human transforming growth factor (TGF) β1 and a medium containing no TGF β1. TGF β1 was dissolved in dimethylsulfoxide (DMSO) to a concentration 1.000-fold higher than the desired treatment concentration of the drug, 1.000-fold diluted in a medium to be a 1-fold (1×) volume, and then treated on cells. After 7 days of the drug treatment, the medium was harvested and washed with a phosphate buffer. A buffer containing a surfactant was added thereto and the cells were lysed. Then, proteins were quantified, electrophoresed on a 4-12% Bis-Tris gel (Invitrogen), and transferred to a nitrocellulose membrane. The transferred proteins were reacted with primary antibodies specific for α-smooth muscle actin (α-SMA) or TGFβ1, and then reacted with horse radish peroxidase-conjugated specific secondary antibodies. The expression level of the target protein was confirmed using a chemiluminescent liquid and corrected in terms of actin (β-actin) expression level (FIG. 9). The decrement of observed protein expression by 100 μM of individual compounds of the present invention was expressed as a percentage drug-induced decrement, based an increment of protein expression in the TGFβ1-treated positive control group relative to the negative control group to which only DMSO was added (Table 3).

HepG2 cells = assay: Free fatty acid-induced intracellular fat accumulation, Nile Red staining; assay type: cell-based, human; conditions: 0.5 mM free fatty acid, 24 hours
Procedure: By a combined treatment of free fatty acid and a drug, inhibitory effects of individual drugs on intracellular fat accumulation were quantified using a triglyceride staining method. The human hepatoma cell line, HepG2 cells were cultured in a minimum essential medium (MEM) containing 10(v/v) % fetal bovine serum for 48 hours. […] For the negative control group, a MEM containing 1(v/v) % bovine serum albumin was treated with 0.1(v/v) % dimethyl sulfoxide with no addition of free fatty acid. After the culture was complete, the medium was removed and the cells were washed with a phosphate buffer. […] After the staining was complete, the supernatant was discarded and replaced with a phosphate buffer, followed by measurement of fluorescence intensities under conditions of a 488 nm excitation wavelength and a 550 nm emission wavelength. Then, in order to correct a deviation according to the cell count, a phosphate buffer containing 10 μM resazurin (Sigma) dissolved therein was added to the same well. Thereafter, before and after the reaction at 37° C. for 1 hour under light-shielded conditions, fluorescence intensities were measured using a fluorometer under conditions of a 535 nm excitation wavelength and a 580 nm emission wavelength, whereby an increase in fluorescence intensity due to resorufin reduced and formed by the intracellular mitochondrial activity was measured. Using the value of a fluorescence intensity of Nile Red corrected in terms of an increase in fluorescence intensity due to the reduction of resazurin, the experimental results were expressed as a percentage for the fat accumulation increased by a treatment with free fatty acid, as compared to the negative control group.

TGF-β1 = TGF-β1 mRNA expression in liver, CCl4-induced acute hepatic damage mouse model; assay type: in vivo, C57BL/6 mice; conditions: for TGF-β1 expression inhibition rate (% CCl4 control group) / TGF-β1 expression (normalized by actin): 3 days; for TGF-β1 expression (normalized by actin): CCl4 0.1 ml/kg i.p.
Procedure: In order to investigate inhibitory effects of compounds of the present invention on expression of TGF-β1 which is known to play a crucial role in a fibrosis process of hepatocytes in a CCl4-induced acute hepatic damage mouse model, the following experiment was carried out. 7-week old male C57BL/6 mice were stabilized and divided into 9 groups (n=7) according to the body weight, followed by intraperitoneal administration of CCl4 (0.1 ml/kg). The normal control group was administered an olive oil. The control group was orally administered a vehicle solution (0.5% MC) once a day at a dose of 10 ml/kg, at intervals of 24 hours for 3 days. The remaining groups were orally administered once a day tartrate of Compound 1 at doses of 30, 100 and 300 mg/kg, sitagliptin phosphate (prepared according to the method described in WO2004/085378 or WO2005/003135) at doses of 100 and 300 mg/kg, and vildagliptin (Trademax, China) at doses of 100 and 300 mg/kg, respectively, according to the designated groups. 1 hour after the final oral administration, animals were dissected and the excised liver was subjected to evaluation of TGF-β1 mRNA expression. The liver tissue stored in liquid nitrogen was homogenized in a TRIZOL solution and then the total RNAs were extracted. The isolated RNAs were diluted to a concentration of 1 μg/μL in 0.1(v/v) % DEPC (diethyl pyrocarbonate), and then the RNA mixture [2 μg/μL each RNA+2 μL of 0.5 μg/μL oligo d(T)15+up to 15 μL of 0.1% DEPC water] was incubated using a PCR apparatus at 72° C. for 5 minutes, followed by quenching on ice. The mixture [1 μL of PCR nucleotide mix+5 μL of 5×MMLV RT bf.(Promega, M531A)+1 μL of […] M-MLV reverse] was prepared, and then subjected to elongation at 42° C. for 60 minutes, denaturation at 95° C. for 5 minutes and quenching at 8° C. to synthesize cDNAs which were stored at −20° C. until subsequent use. In order to carry out RT-PCR, the mixture [1 μL of 20 pmol each Primer+9.5 μL of Nuclease-free water] was prepared and then 2 μL of each cDNA was placed in sterile PCR tubes to which 12.5 μL of remix Taq™ (RR003A, TaKaRa) was then added, followed by mixing. PCR was carried out under the following conditions (Table 4), using Thermal Cycler (PTC-200, MJ Research). PCT products were electrophoresed and analyzed using an Image Analyzer (Vilber Lourmat). Using β-actin expression, the expression of a target gene TGF-β1 was subjected to normalization (FIG. 11).

[2] = tested on: high fat diet-induced simple steatosis; assay: Non-alcoholic fatty liver-preventing effects on high fat diet-induced simple steatosis in mice (oral, 28 days); assay type: in vivo, C57BL/6 mice; conditions: for Triglyceride increase inhibition (%) relative to high fat diet-fed group / Triglyceride increment (%) relative to standard diet-fed group: 28 days, high fat diet
Procedure: 7-week old male C57BL/6 mice were stabilized and then divided into 9 groups (n=9) according to the body weight and blood glucose level. A standard diet-fed group and a high fat diet-fed group were orally administered a vehicle solution (0.5% MC (methylene cellulose)) of each diet once a day at a dose of 10 ml/kg, and the remaining groups were orally given once a day for 28 days a high fat diet in conjunction with tartrate of Compound 1 at doses of 30, 100 and 300 mg/kg, sitagliptin phosphate at doses of 100 and 300 mg/kg, and vildagliptin at doses of 100 mg/kg and 300 mg/kg, respectively, according to the designated groups. 24 hours after the final oral administration, animals were dissected and the excised liver was homogenized in a 5(v/v) % Triton-X solution to which a triglyceride working reagent was then added, followed by measurement of an absorbance at 540 nm to determine the content of triglyceride (Table 2). In addition, a portion of the excised liver was fixed in a 10(v/v) % formalin solution and then a tissue sample was prepared, followed by hematoxylin & eosin(HE) staining and photographing (FIG. 8).

## CC#CCn1c(N2CCC[C@@H](N)C2)nc2c1c(=O)n(Cc1nc(C)c3ccccc3n1)c(=O)n2C [linagliptin]
[1]
  1 ng/mL TGFβ1-induced protein expression inhibition rate, TGFβ1: 64 ± 17.2%
  1 ng/mL TGFβ1-induced protein expression inhibition rate, α-SMA: 159 ± 17.5%
  protein expression levels of TGFβ1 and α-SMA, result in words: lowered

## CN(C)C(=N)N=C(N)N [metformin]
HepG2 cells; Homo sapiens, HepG2, 1 mM, read-out: inhibitory effects on free fatty acid-induced fat accumulation
  inhibition at 1000 µM: 23.6 ± 5%

## N#C[C@@H]1CCCN1C(=O)CNC12CC3CC(CC(O)(C3)C1)C2 [vildagliptin]
TGF-β1; 100 mg/kg oral once a day
  TGF-β1 expression inhibition rate (% CCl4 control group): 92%
  TGF-β1 expression (normalized by actin): 1.02 ± 0.09
TGF-β1; 300 mg/kg oral once a day
  TGF-β1 expression inhibition rate (% CCl4 control group): 115%
  TGF-β1 expression (normalized by actin): 0.96 ± 0.12
TGF-β1; maximum over the doses tested
  maximum decrement in TGF-β1 mRNA expression of the liver relative to the CCl4 control group: 115%
TGF-β1; vs CCl4 group
  expression of TGF-β1 mRNA of the liver, result in words: normalization
[1]
  1 ng/mL TGFβ1-induced protein expression inhibition rate, TGFβ1: 14 ± 32.8%
  1 ng/mL TGFβ1-induced protein expression inhibition rate, α-SMA: −56 ± 8.4%
  protein expression levels of TGFβ1 and α-SMA, result in words: lowered
[2]; 100 mg/kg oral once a day
  Triglyceride increase inhibition (%) relative to high fat diet-fed group: 24%
  Triglyceride increment (%) relative to standard diet-fed group: 38%
[2]; 300 mg/kg oral once a day
  Triglyceride increase inhibition (%) relative to high fat diet-fed group: 79%
  Triglyceride increment (%) relative to standard diet-fed group: 11%
[2]; HE staining, FIG. 8
  lipid droplets in liver tissue sample (histological evaluation), result in words: reduction of lipid droplets
[2]; maximum over the doses tested
  maximum decrement of the hepatic triglyceride content relative to the high fat diet-fed group: 79%

## glucagon-like peptide-1 [GLP-1]
HepG2 cells; 100 nM
  inhibitory effects on free fatty acid-induced fat accumulation: 28.0±4.9%
